# Where no end group is shown, it is not given here. [ ]: non-standard residue; d: D form. Aib = CC(C)(N)C(=O)O
# What was measured:
# [1] = molecular target: GLP-1 수용체 (GLP-1 receptor) (Homo sapiens, UniProt P43220); settings: read-out: GLP-1의 수용체 EC50; HEK293/CRE-Luc cells with human GLP-1 receptor; 4 h at 37℃; luciferase reporter for cAMP
# [2] = molecular target: T1, 글루카곤 수용체(GCGR) (Homo sapiens, UniProt P47871); experiment: Glucagon receptor activity, cAMP Hunter eXpress GCGR CHO-K1 GPCR assay; type: cell-based; settings: CHO-K1 cells with human glucagon receptor; 30 min at 37℃; cAMP production
# T1 construct: host or cells: CHO-K1
# [3] = system: C57BL/6 마우스, high trans-fat diet NAFLD model; experiment: In vivo activity 2 and 3: NAFLD model, C57BL/6 mice on high trans-fat diet (40% fat, 20% fructose, 2% cholesterol) for about 16 weeks; set-up: species or system mouse; settings: 20 nmol/kg s.c. every third day for 4 weeks; also lower than liraglutide 53 nmol/kg daily
# [4] = system: C57BL/6 마우스, high fat diet NAFLD model; experiment: In vivo activity 1: NAFLD model, C57BL/6 mice on 60% high fat diet for about 24 weeks; set-up: species or system mouse; settings: 20 nmol/kg s.c. every second day for 2 weeks; also lower than liraglutide 100 nmol/kg daily
# Sequence of GLP-1 수용체 (GLP-1 receptor) (P43220 24-463): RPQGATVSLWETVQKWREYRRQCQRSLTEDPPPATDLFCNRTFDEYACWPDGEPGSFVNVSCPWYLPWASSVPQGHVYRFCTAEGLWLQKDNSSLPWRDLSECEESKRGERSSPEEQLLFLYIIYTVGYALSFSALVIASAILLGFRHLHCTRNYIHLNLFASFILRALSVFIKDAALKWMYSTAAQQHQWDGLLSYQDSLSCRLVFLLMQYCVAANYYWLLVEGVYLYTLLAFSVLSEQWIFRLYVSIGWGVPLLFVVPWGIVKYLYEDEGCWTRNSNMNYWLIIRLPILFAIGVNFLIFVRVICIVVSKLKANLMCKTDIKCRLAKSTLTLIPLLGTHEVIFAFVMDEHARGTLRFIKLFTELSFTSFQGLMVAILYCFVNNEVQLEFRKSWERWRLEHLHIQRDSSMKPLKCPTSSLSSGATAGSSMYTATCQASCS
# T1 sequence (P47871 26-477): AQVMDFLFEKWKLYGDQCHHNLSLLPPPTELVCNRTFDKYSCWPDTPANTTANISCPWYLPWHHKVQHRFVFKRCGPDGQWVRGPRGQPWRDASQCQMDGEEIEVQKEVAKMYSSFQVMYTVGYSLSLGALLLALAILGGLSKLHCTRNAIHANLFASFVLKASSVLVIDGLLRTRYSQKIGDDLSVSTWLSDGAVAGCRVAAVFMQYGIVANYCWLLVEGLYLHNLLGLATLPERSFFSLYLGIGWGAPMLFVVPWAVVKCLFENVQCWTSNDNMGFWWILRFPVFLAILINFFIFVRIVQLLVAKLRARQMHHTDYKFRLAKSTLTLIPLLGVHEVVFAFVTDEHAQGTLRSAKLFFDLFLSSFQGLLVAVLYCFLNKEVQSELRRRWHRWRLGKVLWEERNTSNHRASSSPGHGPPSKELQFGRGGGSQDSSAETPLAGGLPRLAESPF
substance,measurement,setting,value
"실시예 2: 서열번호 2 H(Aib)QGTFTSDYSKYLDEQAAKEFVQWLMNTC polypeptide conjugated to 3중 가지형 mPEG-MAL(MW: 50 kDa) (H[Aib]QGTFTSDYSKYLDEQAAKEFVQWLMNTC; numbers in words are those of the source; also: conjugated to 3-branched mPEG-MAL 50 kDa, site not given here)",EC50,[1],2.12 nM
same,EC50,[2],47 nM
same,Hepatic triglyceride vs vehicle group (Fig. 8),[3],유의적으로 감소
same,"Liver steatosis, H&E and oil-red-O histology vs vehicle group (Fig. 9)",[3],현저하게 감소
same,Liver weight vs vehicle group (Fig. 7),[3],유의적으로 감소
same,NAFLD activity score (NAS) vs vehicle group (Fig. 10),[3],유의적으로 감소
same,Serum cholesterol level vs vehicle group (Fig. 6),[3],유의적으로 감소
same,"Liver steatosis, H&E histology vs PBS-treated group (Fig. 5)",[4],현저하게 감소
same,Liver weight vs PBS-treated group (Fig. 4),[4],유의적으로 감소
same,Serum cholesterol level vs PBS-treated group (Fig. 3),[4],유의적으로 감소

# — patent KR20210110252A, “폴리펩티드를 포함하는 비알코올성 지방간 질환의 예방 또는 치료용 약학 조성물” (㈜ 디앤디파마텍, priority 2019, dated 2021)
